Source: patent EP0282309A2, “Azole-aminomethylene bisphosphonic acid derivatives” (YAMANOUCHI PHARMACEUTICAL CO. LTD., priority 1987, dated 1988)

Test system: PTH-induced hypercalcemia rats
Test: Hypercalcemia inhibiting effect: serum Ca++ lowering in PTH-induced hypercalcemia rats
Type: in vivo, Wistar male rats
Conditions: blood 45 min after PTH, mean ± S.E., N=5
Experimental: Typical effective ingredients according to the present invention were administered to parathyroid hormone (hereinafter referred to as "PTH")-induced hypercalcemia rats and, for each ingredient, the serum calcium level lowering effect was estimated. Test method: Human 1 to 34 PTH (obtained from the Peptide Institute) was intravenously administered at a dose of 30 µg/kg to 5-week-old Wistar male rats fasted for 20 hours. For the administration, PTH was dissolved in physiological saline containing 0.1% BSA (bovine serum albumin) and the solution was given to the rats in an amount of 5 ml/kg. The normal control group was given 0.1% BSA-containing physiological saline alone in the same manner. […] The blood samples were immediately centrifuged at 4°C, and 3,000 rpm (revolutions per minute) for 10 minutes. The thus-separated sera were measured for ionic calcium (Ca⁺⁺) concentration by means of a Ca⁺⁺ meter (Sera 250; Horiba Seisakusho).
The compounds according to the invention were dissolved, using sodium hydroxide and hydrochloric acid, in physiological saline (pH 7.4), for subcutaneous administration, in such amounts that the dose amounted to 2 ml/kg, and, for oral administration, in distilled water (pH 7.4) so that the dose amounted to 5 ml/kg. They were administered 24 or 72 hours before PTH administration. The normal control group and the control group were given physiological saline or distilled water in the same manner.
The results for each group were expressed in terms of mean ±S.E. (standard error) and comparison was made among the groups by testing by one-way analysis of variance. The significance level was taken at 5%.
The compound of Example 6 was administered 24 hours before PTH administration while other compounds were administered 72 hours before PTH administration.

[1] = oral administration, 10 mg/kg, 72 hours before PTH
[2] = oral administration, 30 mg/kg, 72 hours before PTH
[3] = oral administration, 100 mg/kg, 72 hours before PTH
[4] = subcutaneous administration, 0.1 mg/kg, 72 hours before PTH
[5] = subcutaneous administration, 0.3 mg/kg, 72 hours before PTH
[6] = subcutaneous administration, 1.0 mg/kg, 72 hours before PTH

SMILES | Serum Ca^++ (oral administration, 10 mg/kg, 24 hours before PTH) [mmol/L] | Serum Ca^++ (oral administration, 30 mg/kg, 24 hours before PTH) [mmol/L] | Serum Ca^++ (oral administration, 100 mg/kg, 24 hours before PTH) [mmol/L] | Serum Ca^++ (subcutaneous administration, 0.1 mg/kg, 24 hours before PTH) [mmol/L] | Serum Ca^++ (subcutaneous administration, 0.3 mg/kg, 24 hours before PTH) [mmol/L] | Serum Ca^++ (subcutaneous administration, 1.0 mg/kg, 24 hours before PTH) [mmol/L] | Serum Ca^++ [1] | Serum Ca^++ [2] | Serum Ca^++ [3] | Serum Ca^++ (subcutaneous administration, 0.03 mg/kg, 72 hours before PTH (30 µg/kg i.v.)) [m moles/liter] | Serum Ca^++ [4] | Serum Ca^++ [5] | Serum Ca^++ [6]
O=P(O)(O)C(Nc1nccs1)P(=O)(O)O [Example 6, [(2-thiazolyl)amino]methylenebis(phosphonic acid)] | 1.58 ± 0.03 | 1.54 ± 0.02 | 1.45 ± 0.03 | 1.49 ± 0.01 | 1.45 ± 0.01 | 1.41 ± 0.01 |  |  |  |  |  |  | 
Cc1cnc(NC(P(=O)(O)O)P(=O)(O)O)o1 [Example 10, [(5-methyl-2-oxazolyl)amino]methylene bis(phosphonic acid)] |  |  |  |  |  |  | 1.42 ± 0.03 m moles/liter | 1.27 ± 0.03 m moles/liter | 1.15 ± 0.04 m moles/liter | 1.46 ± 0.01 | 1.29 ± 0.01 m moles/liter |  | 
Cc1cnc(NC(P(=O)(O)O)P(=O)(O)O)s1 [Example 20, [(5-Methyl-2-thiazolyl)amino]methylene bis(phosphonic acid)] |  |  |  |  |  |  | 1.39 ± 0.01 mmol/L | 1.25 ± 0.01 mmol/L | 1.12 ± 0.0 mmol/L |  | 0.95 ± 0.01 m moles/liter | 0.93 ± 0.03 m moles/liter | 0.92 ± 0.03 m moles/liter
Cc1nc(NC(P(=O)(O)O)P(=O)(O)O)sc1C [Example 21, [(4,5-Dimethyl-2-thiazolyl)amino]methylene bis(phosphonic acid)] |  |  |  |  |  |  |  |  |  |  | 1.48 ± 0.01 mmol/L | 1.40 ± 0.01 mmol/L | 1.30 ± 0.02 mmol/L
